Measurements as given in patent US20100197643A1, “PHYTOCHEMICAL-RICH OILS AND METHODS RELATED THERETO” (priority 2007, published 2010).

What was measured:
Caco-2 cell monolayers = test: Transepithelial transport model, apical to basolateral; format: in vitro ADME; conditions: 2 hours, 37° C., not affected by initial polyphenolic concentration
[1] = Phenolic storage stability of açai oil, 10 weeks at 20, 30, 40° C.; format: physicochemical; conditions: for change in concentration after storage: 10 weeks at 20 or 30 ° C.
caspase-3 = test: Caspase-3 activation in HL-60 cells; format: cell-based, human; conditions: optimal time (2, 3, 4 hours tested), highest concentration

With `Oc1cc(O)c2c(c1)O[C@H](c1ccc(O)c(O)c1)[C@@H](O)C2` [(+)-catechin] the “transport efficiency (percentage of initial apical concentration detected on basolateral side)” value (Caco-2 cell monolayers; from açai oil extracts) was “approximately 0.1%” and the “change in concentration after storage” value [1] was “no significant changes”.

For `O=c1c(O)c(-c2ccc(O)c(O)c2)oc2cc(O)cc(O)c12` [Quercetin, quercetin], the “caspase-3 activation (maximal)” value (caspase-3) was “double”.

With `CC[C@@]1(O)C(=O)OCc2c1cc1n(c2=O)Cc2cc3ccccc3nc2-1` [camptotechin] the “caspase-3 activation (maximal)” value (caspase-3) was 7 fold.

In the case of `COc1cc(/C=C/C(=O)O)ccc1O` [ferulic acid], the “transport efficiency (percentage of initial apical concentration detected on basolateral side)” value (Caco-2 cell monolayers; from açai oil extracts) is reported as “approximately 0.1%”, the “decrease in concentration after storage” value ([1]; 10 weeks at 20° C.) is reported as 9.3% and the “decrease in concentration after storage” value ([1]; 10 weeks at 30° C.) is reported as 20.3%. For the same compound, the “decrease / change in concentration after storage” value ([1]; 10 weeks at 40° C.) was 33.1%.

In the case of `O=C(O)c1ccc(O)cc1` [p-hydroxybenzoic acid], the “transport efficiency (percentage of initial apical concentration detected on basolateral side)” value (Caco-2 cell monolayers; from açai pulp extracts) is reported as “approximately 2.0%” and the “change in concentration after storage” value [1] is reported as “no significant changes”.

In the case of `O=C(O)c1ccc(O)c(O)c1` [protocatechuic acid, 3,4-dihydroxybenzoic acid], the “change in concentration after storage” value [1] is reported as “no significant changes”.

With `COc1cc(C(=O)O)cc(OC)c1O` [syringic acid] the “transport efficiency (percentage of initial apical concentration detected on basolateral side)” value (Caco-2 cell monolayers; from açai pulp extracts) was “approximately 0.6%” and the “change in concentration after storage” value [1] was “no significant changes”.

With `COc1cc(C(=O)O)ccc1O` [vanillic acid] the “change in concentration after storage” value [1] was “no significant changes”.
